Starred links: 1 amine or outer side, 2 acyl side, 3 side chain; linkers in the order of their positions; H or OH if unused. Positions of bridges follow the written chain, without caps; N, C: chain ends. Non-standard residues stand in square brackets, D forms with d. Residues, ends and D or L forms follow the SMILES beside them. No end group written: not given here. X1 = CC(=O)NC(C(=O)OC(C(C)C)C(N[*:1])C(=O)[*:2])C(O)C(C)C; Phe(4-Me) = Cc1ccc(C[C@H](N)C(=O)O)cc1; 1Nal = N[C@@H](Cc1cccc2ccccc12)C(=O)O; PhLac = O=C(O)[CH](O)Cc1ccccc1; NMeT = CN[CH](C(=O)O)[CH](C)O; NMeA = CN[CH](C)C(=O)O; NMeDha = C=C(NC)C(=O)O
Columns and labels:
ADGRG2-FL = biological target: T1, ADGRG2-FL (Mus musculus, UniProt Q8CJ12); assay: GloSensor cAMP assay, HEK293 transfected with ADGRG2-FL; type: cell-based; conditions: for p15 activity after alanine substitution (cAMP level): alanine scanning, 100 μM peptide, HEK293 ADGRG2-FL, Glosensor, compared with p15-WT, repeated six times; for EC50: HEK293 transfected with ADGRG2-FL, increasing peptide concentration, cAMP Glosensor, repeated 6 times
T1 construct: Wildtype ADGRG2 full-length (ADGRG2-FL) was cloned from mouse total cDNA libraries; expressed in transfected cells; host or cells: HEK293
T1 sequence (Q8CJ12 38-995 isoform Q8CJ12-3 limits assumed): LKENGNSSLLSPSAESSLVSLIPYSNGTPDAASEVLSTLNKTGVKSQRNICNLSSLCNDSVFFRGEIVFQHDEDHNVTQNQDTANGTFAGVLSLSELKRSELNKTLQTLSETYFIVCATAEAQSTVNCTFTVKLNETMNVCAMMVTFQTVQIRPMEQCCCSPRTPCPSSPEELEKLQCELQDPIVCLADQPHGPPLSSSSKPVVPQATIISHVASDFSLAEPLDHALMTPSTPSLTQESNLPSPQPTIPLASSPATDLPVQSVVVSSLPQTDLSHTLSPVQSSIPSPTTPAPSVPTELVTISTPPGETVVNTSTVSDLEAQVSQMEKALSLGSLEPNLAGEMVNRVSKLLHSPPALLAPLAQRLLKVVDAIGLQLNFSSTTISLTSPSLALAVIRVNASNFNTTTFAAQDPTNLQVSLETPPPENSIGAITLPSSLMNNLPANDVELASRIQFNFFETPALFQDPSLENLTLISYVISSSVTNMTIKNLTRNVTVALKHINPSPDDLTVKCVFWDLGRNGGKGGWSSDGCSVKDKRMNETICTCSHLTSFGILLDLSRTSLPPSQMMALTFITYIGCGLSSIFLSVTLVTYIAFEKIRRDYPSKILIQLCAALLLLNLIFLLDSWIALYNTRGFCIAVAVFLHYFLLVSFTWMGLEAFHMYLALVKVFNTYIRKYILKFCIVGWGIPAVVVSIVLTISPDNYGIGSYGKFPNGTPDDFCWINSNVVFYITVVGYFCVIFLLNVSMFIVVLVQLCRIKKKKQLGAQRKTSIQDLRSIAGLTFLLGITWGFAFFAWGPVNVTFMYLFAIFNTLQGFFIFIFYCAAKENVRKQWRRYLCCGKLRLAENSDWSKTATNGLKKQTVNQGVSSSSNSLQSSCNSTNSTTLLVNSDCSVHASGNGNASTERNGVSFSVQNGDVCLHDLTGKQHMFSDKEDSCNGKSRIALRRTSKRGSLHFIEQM
Description: (§1) Wildtype ADGRG2 full-length (ADGRG2-FL) was cloned from mouse total cDNA libraries using the following primers: forward, […]; reverse, […], and then ADGRG2-FL, ADGRG2 C-terminal truncation mutant (ADGRG2-β), and ADGRG2-ΔGPS-β (the entire ECD of ADGRG2 was deleted) were subcloned into the pcDNA3.1 expression vector. The ADGRG2-ΔGPS-β mutants (T610A, Y611A, C614A, S661A, W662A, I663A, L665A, Y666A，N667A, F671A, L679A, L683A, I730A, V731A, F741A, F747A, W757A, I758A, N759A, S760A, V762A, F764A, Y765A, V768A, V769A, F772A, V774A, W824A, F826A, F828A, F829A, V834A, V836A, F838A, M839A, I844A, F845A) were generated using a QuikChange Mutagenesis Kit (Stratagene). All mutations were verified by DNA sequencing.
(§2) Human embryonic kidney 293 (HEK293) cells were maintained in Dulbecco’s modified Eagle’s medium supplemented with 10% fetal bovine serum, penicillin (100 IU/ml), and streptomycin (100 μg/ml) as described ([6], [38]). For receptor or other protein expression, plasmids carrying the desired genes were transfected into cells using Lipofectamine 2000 (Invitrogen).
(§3) The Glosensor cAMP assay was performed as described ([6], [39], [40]). HEK293 cells were transfected with the GloSensor plasmid and the desired expression plasmids in 24-well dishes. Twenty-four hours after transfection, the cells were plated on 96-well plates at a cell density of 20,000 cells/well. The cells were maintained in Dulbecco’s modified Eagle’s medium for another 24 h, washed with PBS, and then incubated with 100 μl of solution containing 10% fetal bovine serum, 2% (v/v) GloSensor cAMP reagent, and 88% CO2-independent medium in each well for 2 h. The cAMP signal was examined using a luminescence counter (Mithras LB 940).

ADGRG2-ΔGPS-β = biological target: T2, ADGRG2-ΔGPS-β (Mus musculus, UniProt Q8CJ12); assay: GloSensor cAMP assay, HEK293 transfected with ADGRG2-ΔGPS-β; type: cell-based; conditions: cAMP Glosensor; for EC50: HEK293 transfected with ADGRG2-ΔGPS-β, increasing peptide concentration, repeated six times; for EC50 compared with wildtype p15 or other mutants: concentration-response curves, ADGRG2-ΔGPS-β
T2 construct: the entire ECD (including the entire GPS motif) was removed (ADGRG2-ΔGPS-β); expressed in transfected cells; host or cells: HEK293
T2 sequence (Q8CJ12 618-1009 limits assumed, stated change not applied): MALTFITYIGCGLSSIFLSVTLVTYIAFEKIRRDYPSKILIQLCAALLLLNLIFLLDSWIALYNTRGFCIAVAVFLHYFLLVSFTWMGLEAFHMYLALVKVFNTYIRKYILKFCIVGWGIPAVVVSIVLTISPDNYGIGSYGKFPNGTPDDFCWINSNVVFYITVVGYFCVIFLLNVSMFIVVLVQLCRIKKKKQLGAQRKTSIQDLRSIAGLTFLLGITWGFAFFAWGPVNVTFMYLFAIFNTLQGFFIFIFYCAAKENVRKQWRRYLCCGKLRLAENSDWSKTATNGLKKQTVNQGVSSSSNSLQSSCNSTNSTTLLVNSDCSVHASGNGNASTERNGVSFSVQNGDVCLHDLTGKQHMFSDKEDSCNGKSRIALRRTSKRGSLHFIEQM
Description: as §1, §2, §3

ADGRG2 = assay: CalfluxVTN Ca2+ assay; type: cell-based, mouse; conditions: Gq/11 selective inhibitor
Protocol: For the Ca^2+ assays, HEK293 cells in 24-well dishes were cotransfected with plasmids encoding ADGRG2 or its mutants, CalfluxVTN constructs were used at a 6:1 ratio. Empty vector pcDNA3.1(+) was used to normalize the total amount of transfected plasmid DNA. The transfection and CalfluxVTN Ca^2+ assays were performed as previously reported ([28], [29], [41]) with minor modifications. In brief, 24 h post transfection, cells were harvested and distributed in 96-well flat-bottomed white microplates. After another 24 h, the cells were processed accordingly and then were added with the Nluc substrate furimazine (5 μM). The BRET signal was calculated by measuring the ratio of the light emitted by the Venus reporter (535 nm) relative to light emitted by the Nluc reporter (475 nm). The average baseline value (basal BRET ratio) recorded prior to agonist stimulation was subtracted from the experimental BRET signal values to obtain the ΔBRET ratio.

[1] = biological target: Rluc-ADGRG2-ΔGPS-β wildtype (mouse)

F3A: p15 alanine-scan mutant F3A (TSAGILLDLSRTSLP)
p15 activity after alanine substitution (cAMP level) (ADGRG2-FL): greatly impaired p15 activity

TSFGILLDLSRTSLP [p15, reference compound]
EC50 (ADGRG2-FL): 175 µM
EC50 (ADGRG2-ΔGPS-β): 243 µM

CC[C@H](C)[C@H](NC(=O)CNC(=O)[C@H](Cc1cccc2ccccc12)NC(=O)[C@H](CO)NC(=O)[C@@H](N)C(C)C)C(=O)N[C@@H](CC(C)C)C(=O)N[C@@H](CC(C)C)C(=O)N[C@@H](CC(=O)O)C(=O)N[C@@H](CC(C)C)C(=O)N[C@@H](CO)C(=O)N[C@@H](CCCNC(=N)N)C(=O)N[C@H](C(=O)N[C@@H](CO)C(=O)N[C@@H](CC(C)C)C(=O)N1CCC[C@H]1C(=O)O)[C@@H](C)O [T1V/F3(1-Nal)] (H-VS[1Nal]GILLDLSRTSLP-OH)
EC50 (ADGRG2-ΔGPS-β): 4.7 µM
EC50 compared with wildtype p15 or other mutants (ADGRG2-ΔGPS-β): significant lower EC50 than other mutants

VSFGILLDLSRTSLP [T1V]
EC50 compared with wildtype p15 or other mutants (ADGRG2-ΔGPS-β): lower EC50 value than wildtype p15

TSFGILLDLSRTSAP [L14A]
EC50 (ADGRG2-FL): 274 µM

CC[C@H](C)[C@H](NC(=O)CNC(=O)[C@H](Cc1cccc2ccccc12)NC(=O)[C@H](CO)NC(=O)[C@@H](N)[C@@H](C)O)C(=O)N[C@@H](CC(C)C)C(=O)N[C@@H](CC(C)C)C(=O)N[C@@H](CC(=O)O)C(=O)N[C@@H](CC(C)C)C(=O)N[C@@H](CO)C(=O)N[C@@H](CCCNC(=N)N)C(=O)N[C@H](C(=O)N[C@@H](CO)C(=O)N[C@@H](CC(C)C)C(=O)N1CCC[C@H]1C(=O)O)[C@@H](C)O [F3(1-Nal)] (H-TS[1Nal]GILLDLSRTSLP-OH)
EC50 compared with wildtype p15 or other mutants (ADGRG2-ΔGPS-β): lower EC50 value than wildtype p15

R11A: p15 alanine-scan mutant R11A (TSFGILLDLSATSLP)
p15 activity after alanine substitution (cAMP level) (ADGRG2-FL): greatly impaired p15 activity

C=C1C(=O)NC(C)C(=O)N(C)C(C)C(=O)NC(C(OC(=O)C(NC(C)=O)C(O)C(C)C)C(C)C)C(=O)N(C)C(C(C)OC)C(=O)OC(C)C(NC(C)=O)C(=O)OC(Cc2ccccc2)C(=O)N1C (centres unmarked) [YM-254890] (Ac-T[PhLac][NMeDha]A[NMeA][X1][NMeT](Me); ester 1-C; configuration not given here)
inhibition of p15-elicited rise in intracellular calcium (ADGRG2): inhibited

CC[C@H](C)[C@H](NC(=O)CNC(=O)[C@H](Cc1ccc(C)cc1)NC(=O)[C@H](CO)NC(=O)[C@@H](N)[C@@H](C)O)C(=O)N[C@@H](CC(C)C)C(=O)N[C@@H](CC(C)C)C(=O)N[C@@H](CC(=O)O)C(=O)N[C@@H](CC(C)C)C(=O)N[C@@H](CO)C(=O)N[C@@H](CCCNC(=N)N)C(=O)N[C@H](C(=O)N[C@@H](CO)C(=O)N[C@@H](CC(C)C)C(=O)N1CCC[C@H]1C(=O)O)[C@@H](C)O [F3Phe(4-Me)] (H-TS[Phe(4-Me)]GILLDLSRTSLP-OH)
EC50 compared with wildtype p15 or other mutants (ADGRG2-ΔGPS-β): lower EC50 value than wildtype p15

FITC-conjugated VPM-p15 (ADGRG2 Stachel peptide p15 T1V/F3Phe(4-Me))
EC50 of cAMP accumulation (GloSensor assay), HEK293 cells transfected with ADGRG2-ΔGPS-β, increasing concentrations of VPM-p15 (without FITC) [1]: 1.41 µM
fold change of the EC50 of cAMP accumulation (GloSensor assay) against the wildtype p15 peptide, ADGRG2-ΔGPS-β in HEK293 cells [1]: 170 fold

VSFGILLDLSRTSLP [ADGRG2 Stachel peptide p15 T1V]
cAMP accumulation (GloSensor assay), HEK293 cells transfected with ADGRG2-ΔGPS-β, 100 μM peptide, against wildtype p15 [1]: 3 fold

— paper PMC7948503, “Optimization of a peptide ligand for the adhesion GPCR ADGRG2 provides a potent tool to explore receptor biology” (The Journal of Biological Chemistry, 2020)
